Assays:
UM-SCC-1 cells [1] = assay: In vitro invasion assay on Matrigel coated filters; assay type: cell-based, human; conditions: 60 hours, serum-free medium, +/− S.E., 3 dishes
Method: Invasion assays were performed as described (20, 25) using filters with 8 μm pore size coated with ⅓ diluted Matrigel®/SFM (Becton Dickinson, Bedford, Mass.). […] For experiments utilizing a mouse monoclonal MMP-9 Antibody (#IM09L, Oncogene Research Products, Cambridge, Mass.) (0.5, 1, and 10 μg/ml) cells were either plated out in SFM plus antibody of SFM plus similar amounts of preimmune serum. The amount of invasion was determined on the basis of the MTT-activity on the lower side of the filter as a percentage of the total activity in the chamber.
The concentration of the carrier (DMSO) was maintained at 0.1%. […] The data are typical of triplicate experiments.
Invasion is expressed as the percentage of cells invading through Matrigel®. Invasion upon treatment with varying concentrations of the antibody recognizing the active and latent form of MMP-9 or preimmune serum provided by the manufacturer is expressed as average percentage+/−S.E. and represents 3 dishes in each group. The data are typical of triplicate experiments.

UM-SCC-1 cells [2] = assay: Cell growth curves (MTT-vital stain); assay type: cell-based, human; conditions: 5 μM and 10 μM, up to 5 days, medium with 10% FBS
p38γ = biological target: T1, p38γ (Homo sapiens, UniProt P53778); conditions: reported (ref. 27); cited from earlier work
T1 sequence (P53778 1-367): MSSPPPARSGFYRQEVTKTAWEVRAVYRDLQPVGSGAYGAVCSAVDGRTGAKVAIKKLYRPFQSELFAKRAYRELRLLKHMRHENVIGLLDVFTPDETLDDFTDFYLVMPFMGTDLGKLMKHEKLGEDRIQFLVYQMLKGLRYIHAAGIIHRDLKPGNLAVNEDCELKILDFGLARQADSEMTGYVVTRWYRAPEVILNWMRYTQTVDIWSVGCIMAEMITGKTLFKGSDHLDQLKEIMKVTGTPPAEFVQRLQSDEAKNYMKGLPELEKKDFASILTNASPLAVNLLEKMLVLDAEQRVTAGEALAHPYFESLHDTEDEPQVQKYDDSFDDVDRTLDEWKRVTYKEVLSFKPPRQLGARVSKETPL

p38δ = biological target: T2, p38δ (Homo sapiens, UniProt O15264); conditions: reported (ref. 27); cited from earlier work
T2 sequence (O15264 1-365): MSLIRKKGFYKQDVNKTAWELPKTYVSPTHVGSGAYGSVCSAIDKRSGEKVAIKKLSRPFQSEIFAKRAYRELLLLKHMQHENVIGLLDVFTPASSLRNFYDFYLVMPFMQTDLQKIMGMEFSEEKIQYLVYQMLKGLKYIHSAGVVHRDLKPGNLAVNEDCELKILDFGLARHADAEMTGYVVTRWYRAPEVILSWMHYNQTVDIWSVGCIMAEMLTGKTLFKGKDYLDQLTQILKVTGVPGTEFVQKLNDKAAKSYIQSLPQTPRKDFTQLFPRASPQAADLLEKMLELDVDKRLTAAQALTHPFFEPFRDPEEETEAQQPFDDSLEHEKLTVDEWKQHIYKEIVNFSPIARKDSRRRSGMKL

MMP-9 = conditions: after treatment with phorbol myristate acetate (PMA); cited from earlier work
UMSCC-1 = conditions: after treatment with phorbol myristate acetate (PMA); cited from earlier work
matrix-metalloproteases = conditions: cited from earlier work

C[S+]([O-])c1ccc(-c2nc(-c3ccncc3)c(-c3ccc(F)cc3)[nH]2)cc1 (centres unmarked) [SB 203580]
reduction of in-vitro invasion (UM-SCC-1 cells [1]; 5 μM): 43+/−9%
reduction of in-vitro invasion (UM-SCC-1 cells [1]; 10 μM): 69+/−8%
effect on cell growth (UM-SCC-1 cells [2]): does not affect cell growth
inhibition of p38γ (p38γ): not inhibited
inhibition of p38δ (p38δ): not inhibited
inhibition of enhanced MMP-9 secretion (MMP-9): could be inhibited
inhibition of enhanced in-vitro invasiveness (UMSCC-1): could be inhibited

CNC(=O)[C@@H](NC(=O)[C@H](CC(C)C)[C@H](O)C(=O)NO)C(C)(C)C [marimastat]
IC50 value (matrix-metalloproteases): micromolar range

— patent US20040067883A1, “Use of matrix metalloprotease inhibitors for the treatment of cancer” (priority 2000, published 2004)
